The nature of this series: Multiple dose pharmacokinetic study, plasma MnBuOE. Format: in vivo, dog. On the procedure: MnBuOE was administered at 0.25 mg/kg Monday, Wednesday, and Friday (MWF). Dogs were treated concurrently with diphenhydramine (2 mg/kg every 12 h), famotidine (0.5 mg/kg every 12 h), and prednisone (1 mg/kg every 12 h) throughout these studies. Blood/plasma was collected at two time points: 1 h post dose (expected high levels but “safely” away the peak at C max = 0.5 h) and just prior to injection (trough level). The results are presented on Fig. 4a. As expected, the trough levels measured were very low. […] This would imply that no change in the expected mild acute side effects should be observed. […] The change in pulse increased over time for both treatment week and day of the week. Baseline pulse prior to injection was not altered with multiple doses of MnBuOE.

Setting [1] is: 0.25 mg/kg sc Mon/Wed/Fri for 3 weeks, 1 h post-injection.

Each structure is given as a SMILES string. Entries after “also recorded” stand apart in the source; their conditions may differ.

As for `CCCCOCC[n+]1ccccc1-c1c2nc(c(-c3cccc[n+]3CCOCCCC)c3ccc([n-]3)c(-c3cccc[n+]3CCOCCCC)c3nc(c(-c4cccc[n+]4CCOCCCC)c4ccc1[n-]4)C=C3)C=C2.[Mn+3]` [MnBuOE, Mn(III) meso-tetrakis (N-n-butoxyetylpyridium-2-yl) porphyrin], under setting [1], the “plasma MnBuOE concentration following the initial dose” value came to 1.4 µM and the “plasma MnBuOE concentration plateau with subsequent doses” value lay within 0.85 to 1.1 µM. The trough plasma levels result (0.25 mg/kg sc Mon/Wed/Fri, just prior to injection) is “very low”. The “accumulation of the drug in plasma” value (0.25 mg/kg sc Mon/Wed/Fri, long-term treatment) was “no accumulation of the drug in plasma was observed; also recorded: no accumulation observed over time”.

Values taken from PMC5532403, “Potential for a novel manganese porphyrin compound as adjuvant canine lymphoma therapy” (Cancer Chemotherapy and Pharmacology, 2017).
